Measured values reported in patent US7608620B2, “LPAAT-β inhibitors and uses thereof” (Cell Therapeutics, Inc., priority 2000, dated 2009).

Key:
[1] = test system: human breast tumor MCF-7 cells; experiment: Proliferation of MCF-7 cells by CyQUANT analysis; assay type: cell-based; settings: FIG. 5E
Experimental: To determine whether administration of LPAAT-β inhibitor would have any effect on cell proliferation in tissue culture, proliferation of human breast tumor MCF-7 cells in microplates were measured by CyQUANT analysis using a green-fluorescent nucleic acid stain optimized to produce a linear detection range from 50 to 50,000 cells in 200 μl volume (Molecular Probes, Eugene, Oreg.) in the presence of various concentrations of a LPAAT-β inhibitor.

[2] = test system: NIH/3T3 cells overexpressing the oncogene Ki-ras; experiment: Tumor growth of NIH/3T3 cells overexpressing Ki-ras injected subcutaneously into nude mice; assay type: in vivo; settings: 10 mg/Kg to 100 mg/Kg intra-peritoneally on day 1, 2, 3 and 4; tumors measured on day 8; FIG. 6B
Experimental: To determine whether administration of LPAAT-β inhibitor would have any effect on tumor growth in mice, 5×10^5 NIH/3T3 cells overexpressing the oncogene Ki-ras were injected subcutaneously into nude mice. An LPAAT-β inhibitor 6-chloro-N,N′-diphenyl-[1,3,5]triazine-2,4-diamine, at concentrations that range from 10 mg/Kg to 100 mg/Kg of mouse body weight was injected intra-peritoneally on day 1, 2, 3 and 4 after injection of tumor cells. The size of tumors was then measured on day 8.

B16 melanoma cells = experiment: Growth of B16 melanoma cells in syngeneic mice; assay type: in vivo; settings: FIG. 6C
Lewis Lung tumor cells = experiment: Growth of Lewis Lung tumor cells in syngeneic mice; assay type: in vivo; settings: FIG. 6D
[3] = test system: human DU145 prostate tumor cells; experiment: Human DU145 prostate tumor xenograft in nude mice; assay type: in vivo; settings: xenograft study, FIG. 6E
[4] = Tolerability in nude and immunocompetent mice; assay type: in vivo
From the text: In summary, endogenous LPAAT-β expression is detected at high levels by both in situ hybridization and immunohistochemistry in particular tumor tissues and often in surrounding stroma and is associated with tumor progression. LPAAT-β overexpression appears to contribute reversibly to transformation and tumorigenesis of immortalized rodent cells and may also contribute to increased transformation of weakly tumorigenic human cell lines. Compounds selected from screening of LPAAT-β inhibitors from different structural families can inhibit proliferation of numerous tumor cell lines in vitro. […] This compound can inhibit the growth of numerous tumor models in mice and may be a tumor-static compound.

LPAAT-β = target: T1, LPAAT-β (Homo sapiens, UniProt O15120); experiment: Secondary assay of LPAAT-β activity (radiometric/TLC); assay type: biochemical; settings: FIG. 9
T1 construct: the full-length human LPAAT-β cDNA was amplified by PCR; made in house; host or cells: Sf9 insect cells (baculovirus, pFastBac HTc); membrane fraction
T1 sequence (O15120 24-278): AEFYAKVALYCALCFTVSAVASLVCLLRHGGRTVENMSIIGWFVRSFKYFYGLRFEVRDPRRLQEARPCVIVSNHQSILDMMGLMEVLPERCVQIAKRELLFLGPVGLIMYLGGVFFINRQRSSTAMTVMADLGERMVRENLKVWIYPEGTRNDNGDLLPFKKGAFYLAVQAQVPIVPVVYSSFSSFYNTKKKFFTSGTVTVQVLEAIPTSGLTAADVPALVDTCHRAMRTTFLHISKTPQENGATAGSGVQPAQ
Experimental: The radiometric assay was carried out in Sf9 cell membrane overexpressing LPAAT-β resuspended in HEPES-saline buffer, pH 7.5, 1 mg/ml BSA, 1 mM EDTA and 200 μM [^14C]18:1-CoA and 200 μM sn-1-18:1 lysoPA. The samples were incubated 7 min at 37° C. extracted into organic solvent (CHCl3/CH3OH/HCl at 33/66/1), before loading onto TLC plates. A more detailed protocol for the radiometric assay is described below:
Specifically, this LPAAT assay is a modification of the acyltransferase assay published previously (Hollenback and Glomset, Biochemistry 37: 363-376 (1999)).
1. The basic assay, in a total vol of 50 μl, employs a solution of substrates and the protein sample. Total assay volume, as well as the volume of each solution, can be changed to fit an experiment. In addition, other compounds, ex inhibitors and activators, can be included in the assay as well.
2. […]
7. […] To be able to convert pixel volume (determined by the Storm phosphor imager, see step 8b) into cpm, cpm standard curve must be generated on the plate. ^14C-labeled oleate dilutions in chloroform are made for this purpose. Four stocks (50 cpm/μl to 800 cpm/μl) are made and 2 μl of a different concentration are spotted in each corner of the plate (where previously there was no radioactivity). • d. […]
The PA and lysoPA bands are easily detected in this system because of the carrier added in step 5. […]
8. Quantitating activity: • a. […]

LPAAT-α = target: T2, LPAAT-α (Homo sapiens, UniProt Q99943); experiment: Secondary assay, effect on LPAAT-α activity; assay type: biochemical; settings: FIG. 9
T2 sequence (Q99943 27-283): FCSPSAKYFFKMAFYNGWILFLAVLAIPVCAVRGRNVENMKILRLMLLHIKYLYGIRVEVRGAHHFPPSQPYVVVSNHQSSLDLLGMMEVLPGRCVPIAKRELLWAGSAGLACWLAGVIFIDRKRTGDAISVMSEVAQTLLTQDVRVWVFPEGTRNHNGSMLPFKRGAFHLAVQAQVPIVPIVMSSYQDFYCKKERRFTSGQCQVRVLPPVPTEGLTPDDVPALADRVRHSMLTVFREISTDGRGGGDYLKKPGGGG

Structure (SMILES): Clc1nc(Nc2ccccc2)nc(Nc2ccccc2)n1 [6-chloro-N,N′-diphenyl-[1,3,5]triazine-2,4-diamine]
- concentration effective in blocking the proliferation of MCF-7 cells [1]: > 20 µM
- volume of the tumors in mice [2]: decreased as the concentration of the LPAAT-β inhibitor increases
- growth of B16 melanoma cells (B16 melanoma cells): decrease the growth
- growth of Lewis Lung tumor cells (Lewis Lung tumor cells): decrease the growth
- growth of human DU145 prostate tumor cells [3]: decrease the growth
- gross pathology ([4]; at least 100 mg/kg/day for 4-5 days): no discernable gross pathology
- tolerated dose ([4]; nude and immunocompetent mice, mouse, in vivo): at least 100 mg/kg/day
- inhibition of LPAAT-β activity (LPAAT-β): concentration-dependent inhibition
- effect on LPAAT-α activity (LPAAT-α): minimal effect
